Reference: patent US9175013B2, “Fused aminodihydrothiazine derivatives” (Eisai R&D Management Co., Ltd., priority 2011, dated 2015)
Where two headings read alike, the source gives them in different places.

Test: Rat in vivo CNS penetration: plasma, brain and CSF concentrations by LC-MS/MS
Details: male, Sprague Dawley, po, 10 mg/kg, 10 mg/kg p.o.; for concentration at 2 h / Kp at 2 h: 2 h post-dose; for concentration at 4 h / Kp at 4 h: 4 h post-dose; for concentration at 6 h / Kp at 6 h: 6 h post-dose; for concentration at 8 h / Kp at 8 h: 8 h post-dose
Protocol: Rat In Vivo CNS Penetration Male Sprague Dawley rats were acquired from Charles River UK Ltd. (Margate, UK) and housed according to UK Home Office guidelines. Drugs were made up to the appropriate concentrations in 0.5% methyl cellulose. Animals were dosed orally (2 mL/kg) by gavage at the doses outlined in Tables 1 to 4 below. At the time points post-dosing, specified in the Tables 1 to 4 below the animals were administered an i.p. injection of sodium pentobarbitone (approximately 330 mg/kg for terminal anaesthesia). Using a guillotine, the animals were decapitated and trunk blood collected into 15 ml Falcon tubes containing 100 IU heparin. Blood was vortexed followed by centrifugation at 6000 rpm, 4° C. for 5 minutes. Plasma was collected for DMPK and ELISA assays and stored at −80° C. until use. Brains were dissected out and divided along the midline, weighed and stored at −80° C. until further use. Method for Analysis of Plasma, Brain and CSF Samples Test compound was prepared as a 1 mg free base/mL solution in DMSO, vortexed and sonicated for 5 min. The 1 mg/mL DMSO solution was diluted to 10 and 30 μg/mL acetonitrile stocks, by adding 10 μL to 990 μL acetonitrile and 30 μL to 970 acetonitrile, respectively. The 10 and 30 μg/mL acetonitrile stocks were then serially diluted 1:9 (v/v) (100 μL stock into 900 μL acetonitrile) to give the following solutions: 0.003, 0.01, 0.03, 0.1, 0.3, 1, 3, 10 and 30 μg/mL acetonitrile. Control male Sprague Dawley rat plasma and the study plasma samples were stored at −80° C. until the day of analysis when they were thawed at room temperature. Control plasma was centrifuged (2,000 g for 10 min) and aliquoted (90 μL) into eppendorf tubes for preparation of standards and blank samples. Study samples were previously aliquoted (100 μL) into eppendorf tubes immediately following collection of the plasma. An aliquot (10 μL) of the appropriate acetonitrile stock was added to the control plasma (to give a final volume of 100 μL) to give the required calibration standards covering the range 1-3000 ng/mL. Double blank and blank samples were prepared by adding 10 μL of acetonitrile to 90 μL of blank plasma. Control male Sprague Dawley rat brain and the study brain samples were weighed after collection and stored at −80° C. until the day of analysis when they were thawed at room temperature. Once thawed brains were diluted with water (4 mL per gram of tissue) and homogenised using a mechanical homogeniser. An aliquot (100 μL) of each study sample was taken into Micronics tubes ready for analysis and sufficient aliquots (90 μL) of control brain homogenate prepared for preparation of standards and blanks. An aliquot (10 μL) of the appropriate acetonitrile stocks was added to the control brain homogenate (to give a final volume of 100 μL) to give the required calibration standards covering the range 1.5-5000 ng/g. Double blank and blank samples were prepared by adding 10 μL of acetonitrile to 90 μL of blank brain homogenate. Each plasma and brain homogenate sample, standard and blank (100 μL) was extracted with an aliquot (300 μL) of acetonitrile (containing 0.1% formic acid and 100 ng/mL of an appropriate internal standard). Double blanks were extracted with an aliquot (300 μL) of acetonitrile containing 0.1% formic acid). All samples, standards and blanks were then vortex mixed and centrifuged (2000 g for 15 min). An aliquot (50 μL) of the resulting supernatant was then taken into a 2 mL 96-deep well plate and diluted with acetonitrile:water (50:50 v/v) (150 μL) ready for analysis by a specific LC-MS/MS method. Control male Sprague Dawley rat CSF and the study CSF samples were stored at −80° C. until the day of analysis when they were thawed at room temperature. An aliquot (50 μL) of each study sample was taken into Micronics tubes ready for analysis and sufficient aliquots (45 μL) of control CSF prepared for preparation of standards and blanks. […]

[1] = CSF, CSF concentration, read-out: [CSF]
[2] = brain, total brain concentration, read-out: [Br]
[3] = brain, unbound brain, [Br] x Br Fu, read-out: [Bru]
[4] = plasma, total plasma concentration, read-out: [Pl]
[5] = plasma, unbound plasma, [Pl] x Pl Fu, read-out: [Plu]

| SMILES | concentration at 2 h [1] | Kp at 2 h (CSF, read-out: CSF:Plu) | concentration at 4 h [1] | Kp at 4 h (CSF, read-out: CSF:Plu) | concentration at 6 h [1] | Kp at 6 h (CSF, read-out: CSF:Plu) | concentration at 8 h [1] | Kp at 8 h (CSF, read-out: CSF:Plu) | Kp at 2 h (brain, read-out: Brtot:Pltot) | Kp at 2 h (brain, read-out: Bru:Plu) | concentration at 2 h [2] | concentration at 2 h [3] | Kp at 4 h (brain, read-out: Brtot:Pltot) | Kp at 4 h (brain, read-out: Bru:Plu) | concentration at 4 h [2] | concentration at 4 h [3] | Kp at 6 h (brain, read-out: Brtot:Pltot) | Kp at 6 h (brain, read-out: Bru:Plu) | concentration at 6 h [2] | concentration at 6 h [3] | also measured |
| --- | --- | --- | --- | --- | --- | --- | --- | --- | --- | --- | --- | --- | --- | --- | --- | --- | --- | --- | --- | --- | --- |
| COc1cnc(C(=O)Nc2ccc(F)c([C@]34CO[C@H](CF)[C@H]3CSC(N)=N4)c2)cn1 [Example 2, N-(3-((4aS,5S,7aS)-2-amino-5-(fluoromethyl)-4a,5,7,7a-tetrahydro-4H-furo[3,4-d][1,3]thiazin-7a-yl)-4-fluorophenyl)-5-methoxypyrazine-2-carboxamide] | 133 nM | 0.6 | 201 nM | 1.2 | 60 nM | 0.7 | 68 nM | 1.2 | 2.1 | 0.6 | 1780 nM | 118 nM | 2.1 | 0.5 | 1340 nM | 88 nM | 2 | 0.5 | 703 nM | 46 nM | Kp at 8 h (brain, read-out: Brtot:Pltot): 2.1; Kp at 8 h (brain, read-out: Bru:Plu): 0.6; concentration at 8 h [2]: 479 nM; concentration at 8 h [3]: 32 nM; concentration at 2 h [4]: 850 nM; concentration at 2 h [5]: 214 nM; concentration at 4 h [4]: 645 nM; concentration at 4 h [5]: 163 nM; concentration at 6 h [4]: 353 nM; concentration at 6 h [5]: 89 nM; concentration at 8 h [4]: 224 nM; concentration at 8 h [5]: 56 nM |
| COc1cnc(C(=O)Nc2ccc(F)c([C@]34CO[C@H](C(F)F)[C@H]3CSC(N)=N4)c2)cn1 [Example 3, N-(3-((4aS,5S,7aS)-2-amino-5-(difluoromethyl)-4a,5,7,7a-tetrahydro-4H-furo[3,4-d][1,3]thiazin-7a-yl)-4-fluorophenyl)-5-methoxypyrazine-2-carboxamide] | 34 nM | 0.6 | 16 nM | 0.5 | 15 nM | 0.5 | 9 nM | 0.7 | 2.8 | 0.7 | 1090 nM | 38 nM | 2.5 | 0.6 | 576 nM | 20 nM | 2.4 | 0.6 | 561 nM | 20 nM | Kp at 8 h (brain, read-out: Brtot:Pltot): 3; Kp at 8 h (brain, read-out: Bru:Plu): 0.7; concentration at 8 h [2]: 257 nM; concentration at 8 h [3]: 9 nM; concentration at 2 h [4]: 385 nM; concentration at 2 h [5]: 55 nM; concentration at 4 h [4]: 226 nM; concentration at 4 h [5]: 32 nM; concentration at 6 h [4]: 232 nM; concentration at 6 h [5]: 33 nM; concentration at 8 h [4]: 85 nM; concentration at 8 h [5]: 12 nM |
| COc1cnc(C(=O)Nc2cc(F)c(F)c([C@]34CO[C@H](CF)[C@H]3CSC(N)=N4)c2)cn1 [Example 4, N-(3-((4aS,5S,7aS)-2-amino-5-(fluoromethyl)-4a,5,7,7a-tetrahydro-4H-furo[3,4-d][1,3]thiazin-7a-yl)-4,5-difluorophenyl)-5-methoxypyrazine-2-carboxamide] | 33 nM | 0.6 | 40 nM | 0.6 | 13 nM | 0.6 | 8 nM | 0.6 | 3.8 | 0.6 | 1470 nM | 31 nM | 3.4 | 0.5 | 1620 nM | 34 nM | 3.8 | 0.6 | 609 nM | 13 nM | Kp at 8 h (brain, read-out: Brtot:Pltot): 3.7; Kp at 8 h (brain, read-out: Bru:Plu): 0.6; concentration at 8 h [2]: 385 nM; concentration at 8 h [3]: 8 nM; concentration at 2 h [4]: 392 nM; concentration at 2 h [5]: 51 nM; concentration at 4 h [4]: 482 nM; concentration at 4 h [5]: 63 nM; concentration at 6 h [4]: 162 nM; concentration at 6 h [5]: 21 nM; concentration at 8 h [4]: 105 nM; concentration at 8 h [5]: 14 nM |
